How the values were obtained:
Assay in all cases: CTG-3D luminescence at 96 h relative to day-0 seeding control (ratio to day 0); higher = more growth / less cytotoxicity; PDxO 3D drug screen, 96 h, CTG-3D normalised to day-0 seeding control.
HCI-027 = test system: HCI-027 (organoid from a triple-negative breast cancer xenograft)
HCI-025 = test system: HCI-025 (organoid from a breast cancer xenograft)
HCI-003.E2 = test system: HCI-003.E2 (organoid from an ER-positive breast cancer xenograft)
HCI-024 = test system: HCI-024 (organoid from a breast cancer xenograft)
HCI-016 = test system: HCI-016 (organoid from a triple-negative breast cancer xenograft)

COc1cc2c(Oc3ccc4[nH]c(C)cc4c3F)ncnc2cc1OCCCN1CCCC1 [cediranib]
CTG-3D luminescence at 96 h
Details | 12.5 pM | 0.00025 µM | 0.005 µM | 0.1 µM | 1 µM | 10 µM | 100 µM | 625 fM
HCI-016, days in culture: 153 | 3.21 | 2.24 | 2.18 | 2.54 | 3.03 | 0.161 | -0.00356 | 2.44
HCI-016, days in culture: 172 | 2.32 | 2.05 | 1.6 | 1.62 | 1.55 | 0.397 | -0.000672 | 1.64
HCI-016, days in culture: 190 | 1.57 | 1.2 | 1.45 | 1.43 | 1.44 | 0.423 | 5.93e-05 | 1.13
HCI-016, days in culture: 199 | 1.23 | 1.38 | 1.17 | 1.65 | 1.57 | 0.0517 | -0.0032 | 1.73
HCI-024, days in culture: 105 | 1.09 | 1.54 | 1.4 | 1.6 | 1.26 | 0.0298 | -0.000777 | 1.39
HCI-024, days in culture: 122 | 1.5 | 1.9 | 1.93 | 1.84 | 1.65 | 0.0558 | -0.000119 | 2.28
HCI-024, days in culture: 163 | 2.12 | 2.16 | 1.81 | 2.23 | 1.92 | 0.416 | 0.00136 | 2.19
HCI-025, days in culture: 172 | 2.66 | 1.84 | 3.42 | 1.99 | 2.79 | 0.0165 | -0.00438 | 2.12
HCI-025, days in culture: 209 | 1.77 | 1.18 | 1.76 | 1.47 | 2.18 | 0.022 | -0.00409 | 1.31
HCI-025, days in culture: 218 | 1.52 | 1.84 | 2.1 | 1.73 | 1.5 | 0.0433 | -0.00599 | 1.86
HCI-027, days in culture: 176 | 1.99 | 1.2 | 2.24 | 1.46 | 2.56 | 0.0266 | -0.00276 | 1.66
HCI-027, days in culture: 194 | 1.76 | 1.48 | 1.39 | 1.94 | 2.13 | 0.0281 | -0.00212 | 1.47
HCI-027, days in culture: 201 | 2.17 | 1.9 | 1.78 | 1.87 | 2.39 | 0.0302 | -0.000884 | 1.9

HCI-003.E2
Details | CTG-3D luminescence at 96 h
12.5 pM | 2.13
0.00025 µM | 2.53
0.005 µM | 2.12
0.1 µM | 2.33
1 µM | 1.95
10 µM | 0.251
100 µM | 0.0212
625 fM | 2.18

CNC(=O)c1cccc(-c2ccc3c(N4CCOC[C@@H]4C)nc(N4CCOC[C@@H]4C)nc3n2)c1 [vistusertib]
CTG-3D luminescence at 96 h
Details | 12.5 pM | 0.00025 µM | 0.005 µM | 0.1 µM | 1 µM | 10 µM | 100 µM | 625 fM
HCI-016, days in culture: 153 | 2.83 | 1.97 | 2.44 | 1.36 | 1.01 | 1.52 | 0.486 | 1.72
HCI-016, days in culture: 172 | 2.41 | 1.96 | 1.67 | 1.67 | 0.7 | 0.422 | 0.424 | 1.42
HCI-016, days in culture: 190 | 1.92 | 1.44 | 1.77 | 1.19 | 0.838 | 0.424 | 0.374 | 1.44
HCI-016, days in culture: 199 | 1.72 | 1.65 | 1.77 | 1.76 | 0.654 | 0.556 | 0.348 | 1.81
HCI-024, days in culture: 105 | 1.75 | 1.79 | 1.36 | 1.28 | 0.65 | 0.778 | 0.554 | 1.79
HCI-024, days in culture: 122 | 2.25 | 2.36 | 2.05 | 1.84 | 0.987 | 1.07 | 0.813 | 2.77
HCI-024, days in culture: 163 | 1.9 | 2.22 | 1.73 | 2.31 | 1.19 | 0.949 | 0.662 | 1.95
HCI-025, days in culture: 172 | 2.8 | 1.41 | 1.7 | 0.95 | 0.649 | 0.279 | 0.41 | 2.26
HCI-025, days in culture: 209 | 1.74 | 2.05 | 2.28 | 0.89 | 0.395 | 0.287 | 0.239 | 2.1
HCI-025, days in culture: 218 | 1.49 | 1.78 | 1.94 | 0.816 | 0.249 | 0.373 | 0.201 | 1.44
HCI-027, days in culture: 176 | 2.07 | 1.54 | 3.05 | 1.73 | 0.81 | 0.32 | 0.123 | 2.96
HCI-027, days in culture: 194 | 1.93 | 1.49 | 1.77 | 1.58 | 1.03 | 0.803 | 0.226 | 1.84
HCI-027, days in culture: 201 | 1.74 | 2.52 | 2.47 | 2.11 | 1.06 | 0.501 | 0.169 | 2.26

HCI-003.E2
Details | CTG-3D luminescence at 96 h
12.5 pM | 2.24
0.00025 µM | 2.07
0.005 µM | 2.3
0.1 µM | 1.4
1 µM | 0.0994
10 µM | 0.0512
100 µM | 0.0137
625 fM | 2.1

Reference: the supplement of paper PMC8882468
